According to patent US4231928A, “Antibacterial agents” (priority 1979, dated 1980):
Read-outs that look alike come from different tables or passages of the source.

What was measured:
S. marcescens = test: Serial twofold agar dilution (Mueller-Hinton agar), S. marcescens; format: cell-based; conditions: Serratia marcescens, S. marcescens A20019, Table 8
In short: (§1)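 Agar dilution MIC testing is done on Mueller-Hinton medium across twofold concentration steps, with Steers' apparatus used for inoculation. Strains come from a 31-organism screening panel; P. aeruginosa is also tested across 61 isolates.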

S. enteritidis = test: Serial twofold agar dilution (Mueller-Hinton agar), S. enteritidis; format: cell-based; conditions: Salmonella enterica, S. enteritidis A9531, Table 8, read-out: MIC
In short: as §1

S. aureus = test: Serial twofold agar dilution (Mueller-Hinton agar), S. aureus; format: cell-based; conditions: Staphylococcus aureus
In short: as §1

P. vulgaris = test: Serial twofold agar dilution (Mueller-Hinton agar), P. vulgaris; format: cell-based; conditions: Proteus vulgaris, P. vulgaris A9539, Table 8, read-out: MIC
In short: as §1

P. morganii = test: Serial twofold agar dilution (Mueller-Hinton agar), P. morganii; format: cell-based; conditions: Morganella morganii, P. morganii A9553, Table 8, read-out: MIC
In short: as §1

E. cloacae = test: Serial twofold agar dilution (Mueller-Hinton agar), E. cloacae; format: cell-based; conditions: Enterobacter cloacae
In short: as §1

P. mirabilis = test: Serial twofold agar dilution (Mueller-Hinton agar), P. mirabilis; format: cell-based; conditions: Proteus mirabilis, P. mirabilis A9900; Mueller-Hinton agar; Table 8; read-out: MIC
In short: as §1

Klebsiella sp. = test: Serial twofold agar dilution (Mueller-Hinton agar), Klebsiella sp.; format: cell-based; conditions: Klebsiella sp. A20452, Mueller-Hinton agar, Table 8, read-out: MIC
In short: as §1

K. pneumoniae = test: Serial twofold agar dilution (Mueller-Hinton agar), K. pneumoniae; format: cell-based; conditions: Klebsiella pneumoniae, K. pneumoniae A9977, Table 8, read-out: MIC
In short: as §1

E. coli = test: Serial twofold agar dilution (Mueller-Hinton agar), E. coli; format: cell-based; conditions: Escherichia coli
In short: as §1

Pseudomonas aeruginosa = test: Serial twofold agar dilution (Mueller-Hinton agar), P. aeruginosa; format: cell-based; conditions: Pseudomonas aeruginosa
In short: as §1

Pseudomonas sp. = test: Serial twofold agar dilution (Mueller-Hinton agar), Pseudomonas sp.; format: cell-based; conditions: Pseudomonas sp. A20358, Table 8, read-out: MIC
In short: as §1

[1] = Mouse blood levels after subcutaneous administration; conditions: in vivo, sc, 20 mg/kg
Experimental: Mouse blood levels of BB-[…] and BB-[…] were determined by subcutaneous administration of 20 mg/kg of the penicillin to groups of three mice. Blood samples collected from orbital sinuses were assayed by the paper disk agar-diffusion method on Sarcina lutea PC1 1001 plates.

CC1(C)S[C@@H]2[C@H](NC(=O)C(C(=O)O)c3ccccc3)C(=O)N2[C@H]1C(=O)O (stereo partly drawn) [Carbenicillin, reference compound]
50 µg/mL: MIC (S. aureus; S. aureus A15097, Table 8, read-out: MIC) | MIC (S. aureus; S. aureus A20701, Table 8, read-out: MIC) | MIC (Pseudomonas aeruginosa; ATCC19660, Pa-14 ATCC 19660 A20325, Mueller-Hinton agar, Table 9, read-out: MIC) | MIC (Pseudomonas aeruginosa; Pa-7 A9843, Mueller-Hinton agar, Table 9, read-out: MIC) | MIC (Pseudomonas aeruginosa; Pa-12 A20653, Mueller-Hinton agar, Table 9, read-out: MIC) | MIC (Pseudomonas aeruginosa; Pa-28 C.P.H. 10527/72, Mueller-Hinton agar, Table 9, read-out: MIC) | MIC (Pseudomonas aeruginosa; Pa-32 A20595, Mueller-Hinton agar, Table 9, read-out: MIC) | MIC (Pseudomonas aeruginosa; Pa-37 A20130, Mueller-Hinton agar, Table 9, read-out: MIC) | MIC (Pseudomonas aeruginosa; Pa-43 A21233, Mueller-Hinton agar, Table 9, read-out: MIC) | MIC (Pseudomonas aeruginosa; Pa-44 A21274, Mueller-Hinton agar, Table 9, read-out: MIC) | MIC (Pseudomonas aeruginosa; Pa-52 A9926, Mueller-Hinton agar, Table 9, read-out: MIC) | MIC (Pseudomonas aeruginosa; Pa-54 A20128, Mueller-Hinton agar, Table 9, read-out: MIC) | MIC (Pseudomonas aeruginosa; Pa-55 A20227, Mueller-Hinton agar, Table 9, read-out: MIC) | MIC (Pseudomonas aeruginosa; Pa-57 A20546, Mueller-Hinton agar, Table 9, read-out: MIC) | MIC (Pseudomonas aeruginosa; Pa-58 A20557, Mueller-Hinton agar, Table 9, read-out: MIC) | MIC (Pseudomonas aeruginosa; Pa-61 A20726, Mueller-Hinton agar, Table 9, read-out: MIC) | MIC (Pseudomonas aeruginosa; Pa-66 A21434, Mueller-Hinton agar, Table 9, read-out: MIC) | MIC (Pseudomonas aeruginosa; Pa-67 A21509, Mueller-Hinton agar, Table 9, read-out: MIC) | MIC (Pseudomonas aeruginosa; Pa-68 A21510, Mueller-Hinton agar, Table 9, read-out: MIC)
25 µg/mL: MIC (E. cloacae; E. cloacae A9657, Table 8) | MIC (Pseudomonas aeruginosa; GN315, Pa-27 GN315 A21294, Mueller-Hinton agar, Table 9, read-out: MIC) | MIC (Pseudomonas aeruginosa; P. aeruginosa A9843, Mueller-Hinton agar, Table 8, read-out: MIC) | MIC (Pseudomonas aeruginosa; P. aeruginosa A9930, Mueller-Hinton agar, Table 8, read-out: MIC) | MIC (Pseudomonas aeruginosa; P. aeruginosa A15150, Mueller-Hinton agar, Table 8, read-out: MIC)
30 µg/mL: MIC (Pseudomonas aeruginosa; 61 strains of P. aeruginosa, Table 9, read-out: Geometric mean of MIC)
> 100 µg/mL: MIC (P. morganii) | MIC (E. coli; E. coli A20366, Table 8, read-out: MIC) | MIC (E. coli; E. coli A20732, Table 8, read-out: MIC) | MIC (E. coli; E. coli A20898, Table 8, read-out: MIC) | MIC (Pseudomonas aeruginosa; Pa-6 No. 5 Levitan A15194, Mueller-Hinton agar, Table 9, read-out: MIC) | MIC (Pseudomonas aeruginosa; Pa-10 A21479, Mueller-Hinton agar, Table 9, read-out: MIC) | MIC (Pseudomonas aeruginosa; Pa-15 A20717, Mueller-Hinton agar, Table 9, read-out: MIC) | MIC (Pseudomonas aeruginosa; Pa-24 A20896, Mueller-Hinton agar, Table 9, read-out: MIC) | MIC (Pseudomonas aeruginosa; Pa-42 A21229, Mueller-Hinton agar, Table 9, read-out: MIC) | MIC (Pseudomonas aeruginosa; Pa-62 A21213, Mueller-Hinton agar, Table 9, read-out: MIC)
100 µg/mL: MIC (Pseudomonas aeruginosa; GN4925, Pa-45 GN 4925, Mueller-Hinton agar, Table 9, read-out: MIC) | MIC (Pseudomonas aeruginosa; P. aeruginosa A20717, Mueller-Hinton agar, Table 8, read-out: MIC) | MIC (Pseudomonas aeruginosa; Pa-35, Mueller-Hinton agar, Table 9, read-out: MIC) | MIC (Pseudomonas aeruginosa; Pa-38 A20349, Mueller-Hinton agar, Table 9, read-out: MIC) | MIC (Pseudomonas aeruginosa; Pa-69 A21587, Mueller-Hinton agar, Table 9, read-out: MIC)
6.3 µg/mL: MIC (S. aureus; S. aureus A20239, Table 8, read-out: MIC) | MIC (S. aureus; S. aureus BX-1633 A9606, Table 8, read-out: MIC) | MIC (Klebsiella sp.) | MIC (E. coli; E. coli A9635, Table 8, read-out: MIC) | MIC (Pseudomonas aeruginosa; Pa-5 M4865, K.C A15150, Mueller-Hinton agar, Table 9, read-out: MIC) | MIC (Pseudomonas aeruginosa; Pa-16 #130 A20718, Mueller-Hinton agar, Table 9, read-out: MIC)
1.6 µg/mL: MIC (P. vulgaris) | MIC (E. coli; E. coli A20520, Table 8, read-out: MIC) | MIC (Pseudomonas aeruginosa; Pa-36, Mueller-Hinton agar, Table 9, read-out: MIC)
0.2 µg/mL: MIC (S. aureus; S. aureus Smith A9537, Table 8, read-out: MIC)
12.5 µg/mL: MIC (Pseudomonas aeruginosa; Pa-1 D15, Mueller-Hinton agar, Table 9, read-out: MIC) | MIC (Pseudomonas aeruginosa; Pa-3 1449 V.A A9930, Mueller-Hinton agar, Table 9, read-out: MIC) | MIC (Pseudomonas aeruginosa; Pa-17 H6, D114, Mueller-Hinton agar, Table 9, read-out: MIC) | MIC (Pseudomonas aeruginosa; Pa-19 A20229, Mueller-Hinton agar, Table 9, read-out: MIC) | MIC (Pseudomonas aeruginosa; Pa-31 A20594, Mueller-Hinton agar, Table 9, read-out: MIC) | MIC (Pseudomonas aeruginosa; Pa-33 A20598, Mueller-Hinton agar, Table 9, read-out: MIC) | MIC (Pseudomonas aeruginosa; Pa-39 A20641, Mueller-Hinton agar, Table 9, read-out: MIC)
9000 ng/mL: concentration at 0.5 h [1]
3.1 µg/mL: MIC (S. marcescens) | MIC (S. aureus; S. aureus A20240, Table 8, read-out: MIC) | MIC (E. cloacae; E. cloacae A9656, Table 8) | MIC (E. cloacae; E. cloacae A9659, Table 8) | MIC (K. pneumoniae) | MIC (E. coli; E. coli Juhl A15119, Table 8, read-out: MIC) | MIC (Pseudomonas aeruginosa; Pa-18 H8, D121, Mueller-Hinton agar, Table 9, read-out: MIC) | MIC (Pseudomonas aeruginosa; Pa-25 A20897, Mueller-Hinton agar, Table 9, read-out: MIC) | MIC (Pseudomonas sp.)
0.4 µg/mL: MIC (P. mirabilis) | MIC (E. coli; E. coli A9844, Table 8, read-out: MIC) | MIC (E. coli; E. coli NIHJ, Table 8, read-out: MIC) | MIC (Pseudomonas aeruginosa; Pa-26 PS32, Mueller-Hinton agar, Table 9, read-out: MIC)
5800 ng/mL: concentration at 1 h [1]
0.8 µg/mL: MIC (S. enteritidis) | MIC (E. coli; E. coli A20664, Table 8, read-out: MIC)
11500 ng/mL: concentration at 0.25 h [1]
